The target of assay [1] is T1, human endothelial constitutive NOS (hecNOS) (Homo sapiens, UniProt P29474).
T1 construct: made in house; host or cells: Sf9 insect cells (baculovirus vector)
Description: Citrulline assay for nitric oxide synthase, hecNOS. Type of assay: biochemical. Particulars: recombinant enzyme, 30 μM L-arginine, calmodulin; averages across all experiments and all lots. From the text: (§1) Nitric oxide synthase (NOS) activity can be measured by monitoring the conversion of L-[2,3-^3H]-arginine to L-[2,3-^3H]-citrulline (Bredt and Snyder, Proc. Natl. Acad. Sci. U.S.A., 87, 682-685, 1990 and Moore et al, J. Med. Chem. 39, 669-672, 1996). Human inducible NOS (hiNOS), human endothelial constitutive NOS (hecNOS) and human neuronal constitutive NOS (hncNOS) are each cloned from RNA extracted from human tissue. The cDNA for human inducible NOS (hiNOS) is isolated from a λcDNA library made from RNA extracted from a colon sample from a patient with ulcerative colitis. The cDNA for human endothelial constitutive NOS (hecNOS) is isolated from a λcDNA library made from RNA extracted from human umbilical vein endothelial cells (HUVEC) and the cDNA for human neuronal constitutive NOS (hncNOS) is isolated from a λcDNA library made from RNA extracted from human cerebellum obtained from a cadaver. The recombinant enzymes are expressed in Sf9 insect cells using a baculovirus vector (Rodi et al, in The Biology of Nitric Oxide, Pt. 4: Enzymology, Biochemistry and Immunology: Moncada, S., Feelisch, M., Busse, R., Higgs, E., Eds.; Portland Press Ltd.: London, 1995; pp 447-450). Enzyme activity is isolated from soluble cell extracts and partially purified by DEAE-Sepharose chromatography. To measure NOS activity, 10 μL of enzyme is added to 40 μL of 50 mM Tris (pH 7.6) in the presence or absence of test compounds and the reaction initiated by the addition of 50 μL of a reaction mixture containing 50 mM Tris (pH 7.6), 2.0 mg/mL bovine serum albumin, 2.0 mM DTT, 4.0 mM CaCl2, 20 μM FAD, 100 μM tetrahydrobiopterin, 0.4 mM NADPH and 60 μM L-arginine containing 0.9 μCi of L-[2,3-^3H]-arginine. The final concentration of L-arginine in the assay is 30 μM. For hecNOS or hncNOS, calmodulin is included at a final concentration of 40-100 nM. Following incubation at 37° C. for 15 minutes, the reaction is terminated by addition of 400 μL of a suspension (1 part resin, 3 parts buffer) of Dowex 5OW X-8 cation exchange resin in a stop buffer containing 10 mM EGTA, 100 mM HEPES, pH 5.5 and 1 mM L-citrulline. After mixing the resin is allowed to settle and L-[2,3-^3H]-Citrulline formation is determined by counting aliquots of the supernatant with a liquid scintillation counter. Results are reported in Table 1 as the IC50 values of compounds for hiNOS, hecNOS and hncNOS.

Assay [2] deals with T2, Human inducible NOS (hiNOS) (Homo sapiens, UniProt P35228).
T2 construct: made in house; host or cells: Sf9 insect cells (baculovirus vector)
Description: Citrulline assay for nitric oxide synthase, hiNOS. It counts as biochemical. As to conditions: recombinant enzyme, 30 μM L-arginine; averages across all experiments and all lots.
Excerpt: as §1

The target of assay [3] is T3, human neuronal constitutive NOS (hncNOS) (Homo sapiens, UniProt P29475).
T3 construct: made in house; host or cells: Sf9 insect cells (baculovirus vector)
Kind of assay: Citrulline assay for nitric oxide synthase, hncNOS. It counts as biochemical. As to conditions: recombinant enzyme, 30 μM L-arginine, calmodulin; averages across all experiments and all lots.
Excerpt: as §1

Assay [4] deals with nitrite production in human cartilage explants induced with recombinant human IL-1β. Kind of assay: Human Cartilage Explant Assay. It counts as cell-based. As to conditions: inhibition of nitrite production, IL-1β-stimulated explants, averages across all experiments and all lots.
Description: Bone pieces are rinsed twice with Dulbecco's Phosphate Buffered Saline (GibcoBRL) and once with Dulbecco's Modified Eagles Medium (GibcoBRL) and placed into a petri dish with phenol red free Minimum Essential Medium (MEM) (GibcoBRL). Cartilage was cut into small explants of approximately 15-45 mg in weight and one or two explants per well are placed into either 96 or 48 well culture plates with 200-500 μL of culture media per well. The culture media was either a custom modification of Minimum Essential Medium(Eagle) with Earle's salts (GibcoBRL) prepared without L-Arginine, without L-Glutamine and without phenol red or a custom modification of serumless Neuman and Tytell (GibcoBRL) medium prepared without L-arginine, without insulin, without ascorbic acid, without L-glutamine and without phenol red. Both are supplemented before use with 100 μM L-Arginine (Sigma), 2 mM L-glutamine, 1×HL-1 supplement (BioWhittaker), 50 mg/ml ascorbic acid (Sigma) and 150 pg/ml recombinant human IL-1β (RD Systems) to induce nitric oxide synthase. Compounds are then added in 10 μL aliquots and the explants incubated at 37° C. with 5% CO2 for 18-24 hours. […] This supernatant is analyzed for nitrite with a fluorometric assay (Misko et al, Anal. Biochem., 214, 11-16, 1993). […]

Where a name gives a salt, the structure may show the parent alone.

The text below walks through data of patent publication US6403830B2, “Amidino compound and salts thereof useful as nitric oxide synthase inhibitors” (Pharmacia Corporation, priority 2000, dated 2002).

What is called IC50 is the concentration that gives 50% inhibition.

T1 sequence (P29474 2-1203): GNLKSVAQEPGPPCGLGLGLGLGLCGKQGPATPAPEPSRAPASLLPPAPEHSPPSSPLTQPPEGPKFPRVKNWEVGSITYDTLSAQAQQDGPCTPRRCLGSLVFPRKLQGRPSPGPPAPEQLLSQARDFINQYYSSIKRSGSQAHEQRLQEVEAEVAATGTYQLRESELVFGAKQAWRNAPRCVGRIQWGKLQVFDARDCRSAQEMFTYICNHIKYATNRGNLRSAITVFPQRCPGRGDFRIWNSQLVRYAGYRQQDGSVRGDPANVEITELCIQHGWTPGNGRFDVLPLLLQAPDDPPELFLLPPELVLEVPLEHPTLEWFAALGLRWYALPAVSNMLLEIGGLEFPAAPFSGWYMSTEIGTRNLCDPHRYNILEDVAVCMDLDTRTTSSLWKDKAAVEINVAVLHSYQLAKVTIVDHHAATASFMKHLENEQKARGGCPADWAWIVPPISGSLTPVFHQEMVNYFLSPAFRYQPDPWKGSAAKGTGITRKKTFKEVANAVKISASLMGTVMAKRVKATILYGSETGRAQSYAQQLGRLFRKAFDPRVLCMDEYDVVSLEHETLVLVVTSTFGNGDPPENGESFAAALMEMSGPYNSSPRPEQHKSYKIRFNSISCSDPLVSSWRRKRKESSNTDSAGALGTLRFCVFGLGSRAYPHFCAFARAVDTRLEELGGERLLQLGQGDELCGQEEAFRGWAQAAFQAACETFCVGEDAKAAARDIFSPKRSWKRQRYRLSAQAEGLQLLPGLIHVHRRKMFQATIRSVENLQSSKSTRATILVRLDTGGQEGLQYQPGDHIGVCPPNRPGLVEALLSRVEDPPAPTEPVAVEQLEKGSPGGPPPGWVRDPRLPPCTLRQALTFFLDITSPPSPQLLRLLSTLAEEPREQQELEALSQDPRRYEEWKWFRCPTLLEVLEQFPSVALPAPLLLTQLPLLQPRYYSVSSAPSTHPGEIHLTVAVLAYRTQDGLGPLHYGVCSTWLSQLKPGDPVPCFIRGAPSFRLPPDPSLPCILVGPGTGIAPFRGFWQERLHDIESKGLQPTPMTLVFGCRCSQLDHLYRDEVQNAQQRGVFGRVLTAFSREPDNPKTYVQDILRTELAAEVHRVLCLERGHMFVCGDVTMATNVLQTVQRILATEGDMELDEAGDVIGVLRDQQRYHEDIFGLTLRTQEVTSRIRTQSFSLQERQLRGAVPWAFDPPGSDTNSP
T3 sequence (P29475 whole entry): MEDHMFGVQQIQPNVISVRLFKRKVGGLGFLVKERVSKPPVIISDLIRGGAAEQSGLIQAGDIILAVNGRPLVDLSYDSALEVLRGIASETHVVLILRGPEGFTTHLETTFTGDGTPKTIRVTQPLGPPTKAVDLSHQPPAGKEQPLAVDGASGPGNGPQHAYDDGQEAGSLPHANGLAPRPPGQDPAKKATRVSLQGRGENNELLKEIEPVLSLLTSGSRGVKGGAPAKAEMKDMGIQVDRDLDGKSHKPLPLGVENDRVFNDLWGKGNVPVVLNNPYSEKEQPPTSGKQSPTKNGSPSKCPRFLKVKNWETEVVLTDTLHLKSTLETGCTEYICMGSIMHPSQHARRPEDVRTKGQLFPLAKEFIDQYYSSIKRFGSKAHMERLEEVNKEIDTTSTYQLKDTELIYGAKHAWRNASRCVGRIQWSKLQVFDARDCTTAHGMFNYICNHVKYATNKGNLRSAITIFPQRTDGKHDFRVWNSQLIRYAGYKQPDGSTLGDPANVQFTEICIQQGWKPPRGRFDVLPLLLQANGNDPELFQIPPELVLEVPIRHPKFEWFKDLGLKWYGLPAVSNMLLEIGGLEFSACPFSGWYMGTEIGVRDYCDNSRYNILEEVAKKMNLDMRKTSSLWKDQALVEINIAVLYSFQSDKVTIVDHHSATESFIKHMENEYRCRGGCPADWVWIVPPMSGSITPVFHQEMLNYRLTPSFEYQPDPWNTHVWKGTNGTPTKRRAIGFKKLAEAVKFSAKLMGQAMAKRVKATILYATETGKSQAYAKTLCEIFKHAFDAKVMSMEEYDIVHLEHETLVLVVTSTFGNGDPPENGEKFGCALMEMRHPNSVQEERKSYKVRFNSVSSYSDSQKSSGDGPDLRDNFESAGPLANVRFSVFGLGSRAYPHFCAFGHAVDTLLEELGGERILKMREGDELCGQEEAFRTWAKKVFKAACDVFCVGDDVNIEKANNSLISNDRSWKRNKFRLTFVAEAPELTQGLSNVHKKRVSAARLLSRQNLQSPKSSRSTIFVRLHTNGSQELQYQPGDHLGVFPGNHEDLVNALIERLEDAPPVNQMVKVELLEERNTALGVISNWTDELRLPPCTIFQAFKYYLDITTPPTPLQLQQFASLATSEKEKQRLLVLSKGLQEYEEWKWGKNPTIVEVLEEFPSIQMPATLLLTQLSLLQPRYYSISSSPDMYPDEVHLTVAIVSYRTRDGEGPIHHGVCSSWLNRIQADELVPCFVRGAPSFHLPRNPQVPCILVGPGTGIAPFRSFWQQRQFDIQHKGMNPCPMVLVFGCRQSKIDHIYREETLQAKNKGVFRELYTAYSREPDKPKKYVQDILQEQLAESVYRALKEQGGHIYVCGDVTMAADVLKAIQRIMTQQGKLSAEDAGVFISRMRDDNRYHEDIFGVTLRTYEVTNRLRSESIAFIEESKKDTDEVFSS
T2 sequence (P35228 whole entry): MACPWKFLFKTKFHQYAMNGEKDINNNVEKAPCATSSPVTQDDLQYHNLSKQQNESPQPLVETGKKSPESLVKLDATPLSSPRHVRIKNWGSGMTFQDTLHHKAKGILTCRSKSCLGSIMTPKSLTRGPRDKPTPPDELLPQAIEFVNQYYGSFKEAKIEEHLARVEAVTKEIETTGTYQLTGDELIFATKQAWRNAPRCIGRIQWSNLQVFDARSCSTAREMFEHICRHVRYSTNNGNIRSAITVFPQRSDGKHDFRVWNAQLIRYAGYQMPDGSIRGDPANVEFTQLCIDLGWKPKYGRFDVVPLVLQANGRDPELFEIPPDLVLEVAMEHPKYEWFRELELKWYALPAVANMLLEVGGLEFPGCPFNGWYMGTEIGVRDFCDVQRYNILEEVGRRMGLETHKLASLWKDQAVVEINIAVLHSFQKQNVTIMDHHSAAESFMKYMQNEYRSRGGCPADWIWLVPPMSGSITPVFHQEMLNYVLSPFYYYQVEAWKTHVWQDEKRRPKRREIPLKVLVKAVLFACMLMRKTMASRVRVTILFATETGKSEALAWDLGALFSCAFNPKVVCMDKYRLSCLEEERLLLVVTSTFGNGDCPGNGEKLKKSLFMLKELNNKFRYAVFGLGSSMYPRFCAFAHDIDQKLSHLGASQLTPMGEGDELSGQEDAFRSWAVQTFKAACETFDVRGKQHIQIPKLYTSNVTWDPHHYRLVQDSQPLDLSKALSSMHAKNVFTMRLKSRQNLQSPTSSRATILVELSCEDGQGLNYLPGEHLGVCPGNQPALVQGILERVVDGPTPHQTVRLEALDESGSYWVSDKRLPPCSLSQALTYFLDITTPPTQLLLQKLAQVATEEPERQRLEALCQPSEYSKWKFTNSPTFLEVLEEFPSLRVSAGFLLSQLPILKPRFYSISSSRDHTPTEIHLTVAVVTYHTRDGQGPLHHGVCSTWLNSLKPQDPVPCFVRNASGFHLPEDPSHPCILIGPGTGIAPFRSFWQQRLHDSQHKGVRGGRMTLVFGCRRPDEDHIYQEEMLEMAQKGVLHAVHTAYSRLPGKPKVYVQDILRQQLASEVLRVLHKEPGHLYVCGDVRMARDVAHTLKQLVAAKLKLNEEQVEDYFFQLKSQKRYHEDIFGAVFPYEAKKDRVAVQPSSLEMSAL

As for `CC(=N)NCC[S+]([O-])C[C@](C)(N)C(=O)O` (mixture of isomers) [Example 18, (2R)-2-Amino-3[[2-[(1-iminoethyl)amino]ethyl]sulfmyl]-2-methylpropanoic acid, dihydrochloride], the half-maximal inhibitory concentration (IC50) in assay [1] is over 100 µM; in assay [2], 12 µM; in assay [3] it was 181 µM.
As for `CC(=N)NCCSC[C@](C)(N)C(=O)O` [Example 1, S-[2-[(1-Iminoethyl)amino]ethyl]-2-methyl-L-cysteine, dihydrochloride], the IC50 was determined as 77 µM in assay [1], 0.7 µM in assay [4], 3.1 µM in assay [2] and 15 µM in assay [3].
For the molecule `COC[C@](N)(CSCCNC(C)=N)C(=O)O` [Example 2, 2-[[[2-[(1-Iminoethyl)amino]ethyl]thio]methyl]-O-methyl-D-serine, dihydrochloride], the 50% inhibitory concentration (IC50) worked out at 302 µM in assay [1], 4.4 µM in assay [2] and 58 µM in assay [3].
Regarding `CC(=N)NC[C@@H](C)SC[C@](C)(N)C(=O)O` [Example 3, S-[(1R)-2-[(1-Iminoethyl)amino]-1-methylethyl]-2-methyl-L-cysteine, dihydrochloride], the IC50 in assay [1] was found to be 266 µM; in assay [2] it was 74 µM; in assay [3] it was 86 µM.
On the same counts, the results for `CC(=N)NC[C@H](C)SC[C@](C)(N)C(=O)O` [Example 4, S-[(1S)-2-[(1-Iminoethyl)aminol-1-methylethyl]-2-methyl-L-cysteine, dihydrochloride] are 1100 µM, 197 µM and 539 µM.
For the molecule `CC[C@](N)(CSCCNC(C)=N)C(=O)O` [Example 7, S-[2-[(1-Iminoethyl)amino]ethyl]-2-ethyl-L-cysteine, dihydrochloride], the IC50 is 78 µM in assay [1], 3.4 µM in assay [2] and 17 µM in assay [3].
On the same counts, the results for `CC(=N)NCCSC[C@](N)(C(=O)O)C(C)C` [Example 11, 2-[[[[2-(1-Iminoethyl)amino]ethyl]thio]methyl]-D-valine, dihydrochloride] are 26 µM, 0.9 µM and 6 µM.
On to `CC(=N)NCCSCC(C)(N)C(=O)O` (stereo not drawn) [Example 16, S-[2-(1-Iminoethylamino)ethyl]-2-methyl-(D/L)-cysteine, bistrifluoroacetate], for which the IC50 was over 100 µM in assay [1], 0.7 µM in assay [4], 7.2 µM in assay [2] and 36 µM in assay [3].
Consider `CC(=N)NCCS(=O)(=O)C[C@](C)(N)C(=O)O` [Example 19, (2R)-2-Amino-3[[2-[(1-iminoethyl)amino]ethyl]sulfonyl]-2-methylpropanoic acid dihydrochloride], for which the IC50 in assay [1] was determined as 1080 µM; in assay [2] it was 12 µM; in assay [3] it was 220 µM.
